These results are taken from patent US6271238A, “Acetamide derivatives and protease inhibitors” (Nippon Kayaku Kabushiki Kaisha, priority 1996, dated 2001).

Molecules are shown by their SMILES.

The target of one assay is T1, rat chymase (Rattus norvegicus, UniProt P09650).
T1 construct: 50 g rat tongue was finely divided by scissors and a scalpel; from tissue; host or cells: rat tongue
T1 sequence (P09650 21-260): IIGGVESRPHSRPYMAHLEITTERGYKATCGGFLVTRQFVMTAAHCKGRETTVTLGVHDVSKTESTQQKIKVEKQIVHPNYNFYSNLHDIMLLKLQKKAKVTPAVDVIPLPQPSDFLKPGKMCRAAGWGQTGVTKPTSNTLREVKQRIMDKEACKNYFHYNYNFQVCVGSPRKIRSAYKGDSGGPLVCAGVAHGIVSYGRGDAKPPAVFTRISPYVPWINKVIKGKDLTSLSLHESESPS
In words: Inhibitory activity on rat chymase (synthetic substrate). It is filed as biochemical. The note with it: substrate succinyl leucyl leucyl valyl tyrosyl methylcoumarylamide; pH 8.0, 37° C., 15 min; read-out: Rat Chymase (IC50: nM), 50% inhibitory concentration. How it is done: In the present invention, chymase was purified by the methods described in these literatures, and the present compounds were examined for inhibitory activity on chymase, inhibitory action on activation of mast cells and eosinophils, and pharmacological action in animals. Hereinafter, specific methods are described. […] 50 g rat tongue was finely divided by scissors and a scalpel, suspended in 0.1 M phosphate buffer (pH 8.0), and disrupted by a Polytron homogenizer for 5 minutes to prepare a crude chymase enzyme solution. […] The supernatant was applied to an octyl Sepharose 4B column (40×100 mm) previously equilibrated with 0.1 M phosphate buffer (pH 8.0) containing 2 M sodium chloride and 5% ammonium sulfate, and the protein was eluted with a linear concentration gradient of from 2 M to 0 M sodium chloride. […] (D) Measurement of inhibitory activity on chymase (a) Measurement using the synthetic substrate The synthetic chymase substrate was used for measurement of the inhibitory activity on the rat chymase as a subtrate, and the fluorescence of formed aminomethylcoumarin after reaction was measured by a spectrophotometer. […] The test was conducted several times. Chymase was prepared for each test in the manner described above. The compounds examined were compounds prepared in the above-described examples. […] Succinyl leucyl leucyl valyl tyrosyl methylcoumarylamide (for rat […] angiotensin I (for human and dog chymase)

For a further assay, the system named is guinea pig eosinophils. Nature of the assay: Inhibitory action on eosinophils (release of active oxygen from guinea pig eosinophils). The class given is cell-based. The note with it: Cavia porcellus, Eosinophil, 5 min, PAF, luminol chemiluminescence for 5 minutes. As to the method: Inhibitory activity on eosinophil activation
(A) Preparation of eosinophils
Polymyxin B (produced by Sigma) was administered intraperitoneally into a guinea pig (Hartley, male, 6-week-old) at a dosage of 1 mg once every week for 6 to 8 weeks. After the final administration of polymyxin B. 50 ml of PBS (phosphate-buffered saline) was injected into the intraperitoneal cavity of the guinea pig, and cells were recovered. The cells were centrifuged at 800 rpm for 5 minutes and the abdomen infiltration cells were collected as precipitates and then suspended in 1 ml of 40% Ficoll (40% Ficoll (produced by Pharmacia), HBSS (Hanks' balanced salt solution) and layered on a Ficoll discontinuous density gradient (40 to 90%). It was centrifuged at 1500 rpm for 40 minutes, and the eosinophil fraction was recovered. In this operation, eosinophils of 99% or more purity were usually obtained. Further, the cells were washed twice with RPMI 1640 medium (10% BSA (bovine serum albumin available from Boehringer Mannheim), suspended again at a predetermined density, and used in the objective experiment.
(B) Inhibitory action on eosinophils (inhibitory action on release of active oxygen from guinea pig eosinophils)
The eosinophils (99% or more purity) obtained by the Ficoll density gradient method in (A) above were suspended at a cell density of 4×10^5 in a buffer solution (0.136 M sodium chloride, 2.7 mM potassium chloride, 1.8 mM calcium chloride, 1.0 mM magnesium chloride, 11.9 mM sodium hydrogen carbonate, 5.5 mM D-glucose, 5.0 mM HEPES, 0.36 mM sodium dihydrogen phosphate, pH 7.2). Each drug (2 μl) and 180 μl of the cell suspension were put to a 96-well multi-well plate (for chemiluminescence measurement, white type) previously kept at 37° C., and incubated at 37° C. for 10 minutes. After incubation, 20 μl of PAF (platelet-activating factor) (5×10^-6 M) and 20 μl of a luminol solution were added to it and immediately examined for its chemiluminescence (Luminoskan Labosystem). The chemiluminescence for 5 minutes were measured to calculate 50% inhibitory concentration (IC50: μM).

The next assay deals with rat mast cells. In words: Inhibitory action on degranulation of mast cells (histamine release from rat mast cells). It is filed as cell-based. The note with it: Mast cell; rat peritoneal mast cells, anti-IgE antibody, 37° C. As to the method: Inhibitory action on degranulation of mast cells
(A) Preparation of mast cells
30 ml of mast cell buffer solution (150 mM sodium chloride, 3.7 mM potassium chloride, 3.0 mM disodium hydrogen phosphate, 3.5 mM sodium dihydrogen phosphate, 5.6 mM dextrose, pH 7.0) was injected into the abdomen of a rat(SD, male, 8 to 10 week-old), and intra peritoneal cavity cells were recovered and centrifuged at 800 rpm for 5 minutes, and then the abdomen infiltration cells were recovered as precipitates. The precipitated cells were further washed twice with the mast cell buffer solution, suspended again at a predetermined density, and used in the objective experiment.
(B) Inhibitory action on degranulation of mast cells (inhibitory action on histamine release from rat mast cells)
The mast cells obtained in the procedure in (A) above were suspended at 1×10^5 cells in the mast cell buffer solution and kept at 37° C. 2 μl of each drug and 200 μl of the cell suspension were added into a 1.5 ml test tube previously kept at 37° C. and incubated at 37° C. for 10 minutes. After incubation, 2 μl anti-IgE antibody (BETHYL Lab. Inc.) was added to it and further incubated at 37° C. for 15 minutes. After the end of the reaction, the reaction mixture was immediately cooled on ice and centrifuged at 4° C. at 4000 rpm for 5 minutes, and then the supernatant was stored. Histamine in the supernatant was modified with ortho-phthalaldehyde and measured by high performance liquid chromatography to determine 50% inhibitory concentration (IC50: μM).

The target in another assay is T2, dog chymase (Canis lupus familiaris, UniProt P21842).
T2 construct: 60 g dog heart was finely divided by scissors and a scalpel; from tissue; host or cells: dog heart
T2 sequence (P21842 22-249): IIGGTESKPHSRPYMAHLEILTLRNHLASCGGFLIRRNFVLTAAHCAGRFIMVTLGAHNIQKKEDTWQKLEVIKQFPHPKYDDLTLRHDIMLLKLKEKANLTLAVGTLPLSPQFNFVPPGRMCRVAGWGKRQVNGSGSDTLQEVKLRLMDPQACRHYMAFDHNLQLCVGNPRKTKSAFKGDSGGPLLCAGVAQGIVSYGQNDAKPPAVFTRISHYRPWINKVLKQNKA
In words: Inhibitory activity on dog chymase (angiotensin I as substrate). The class given is biochemical. The note with it: pH 8.0, 37° C., 60 min, read-out: Dog Chymase (IC50: nM), 50% inhibitory concentration. An excerpt: It is known that chymase is present in tissues of various animals, and its isolation and purification methods are described in Anal. Biochem., 137, 449 (1984) and FEBS Letters, 323, 119 (1993). In the present invention, chymase was purified by the methods described in these literatures, and the present compounds were examined for inhibitory activity on chymase, inhibitory action on activation of mast cells and eosinophils, and pharmacological action in animals. Hereinafter, specific methods are described. (c) Preparation of dog chymase 60 g dog heart was finely divided by scissors and a scalpel, suspended in 0.1 M phosphate buffer (pH 8.0), and disrupted by a Polytron homogenizer for 5 minutes to prepare a crude chymase enzyme solution. It was centrifuged at 22000×g for 15 minutes, and the precipitates were used as a chymase enzyme fraction. […] An active fraction decomposing the synthetic chymase substrate was recovered and concentrated and this product was used as a purified dog chymase in the following activity measurement. (D) Measurement of inhibitory activity on chymase (b) Measurement using angiotensin I as substrate The inhibitory activity on the human chymase and dog chymase was measured using angiotensin I (Peptide Kenkyusho) as substrate besides the above synthetic substrate. […] After the end of the reaction, produced angiotensin II was immediately measured by high performance liquid chromatography to determine the activity of the chymase to calculate 50% inhibitory concentration (IC50: nM). The test was conducted several times. Chymase was prepared for each test in the manner described above. The compounds examined were compounds prepared in the above-described examples. […] 50% Inhibitory concentration (IC50: nM) of each compound toward rat chymase, dog […] human […] Substrate: Succinyl leucyl leucyl valyl tyrosyl methylcoumarylamide (for rat […] angiotensin I (for human and dog chymase)

The target in the next assay is T3, human chymase (Homo sapiens, UniProt P23946).
T3 construct: 60 g human tonsils were finely divided by scissors and a scalpel; from tissue; host or cells: human tonsils
T3 sequence (P23946 22-247): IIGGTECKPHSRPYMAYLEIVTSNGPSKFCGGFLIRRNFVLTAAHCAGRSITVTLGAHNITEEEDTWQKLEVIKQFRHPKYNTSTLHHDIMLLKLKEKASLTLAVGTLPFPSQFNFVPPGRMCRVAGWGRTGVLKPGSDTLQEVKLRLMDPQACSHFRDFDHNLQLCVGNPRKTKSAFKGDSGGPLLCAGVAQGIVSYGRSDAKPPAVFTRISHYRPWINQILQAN
Nature of the assay: Inhibitory activity on human chymase (angiotensin I as substrate). The class given is biochemical. An excerpt:
It is known that chymase is present in tissues of various animals, and its isolation and purification methods are described in Anal. Biochem., 137, 449 (1984) and FEBS Letters, 323, 119 (1993). In the present invention, chymase was purified by the methods described in these literatures, and the present compounds were examined for inhibitory activity on chymase, inhibitory action on activation of mast cells and eosinophils, and pharmacological action in animals. Hereinafter, specific methods are described. 50 g rat tongue was finely divided by scissors and a scalpel, suspended in 0.1 M phosphate buffer (pH 8.0), and disrupted by a Polytron homogenizer for 5 minutes to prepare a crude chymase enzyme solution. […] The supernatant was applied to an octyl Sepharose 4B column (40×100 mm) previously equilibrated with 0.1 M phosphate buffer (pH 8.0) containing 2 M sodium chloride and 5% ammonium sulfate, and the protein was eluted with a linear concentration gradient of from 2 M to 0 M sodium chloride. An active fraction decomposing succinyl leucyl leucyl valyl tyrosyl methylcumarylamide (hereinafter referred to as the synthetic chymase substrate, a product of Peptide Kenkyusho) was recovered and concentrated and this product was used as a purified rat chymase in the following activity measurement. (B) Preparation of human chymase 60 g human tonsils were finely divided by scissors and a scalpel, suspended in 0.1 M phosphate buffer (pH 8.0), and A-disrupted by a Polytron homogenizer for 5 minutes to prepare a crude chymase enzyme solution. It was centrifuged at 22000×g for 30 minutes, and the precipitates were used as a chymase enzyme fraction. […] The supernatant was concentrated by an ultrafiltration membrane, then applied to […] column (6.0×300 mm), and eluted with 0.1 M phosphate buffer (pH 8.0). An active fraction decomposing the synthetic chymase substrate was recovered and concentrated and this product was used as a purified human chymase in the following activity measurement. (D) Measurement of inhibitory activity on chymase (b) Measurement using angiotensin I as substrate The inhibitory activity on the human chymase and dog chymase was measured using angiotensin I (Peptide Kenkyusho) as substrate besides the above synthetic substrate. […] After the end of the reaction, produced angiotensin II was immediately measured by high performance liquid chromatography to determine the activity of the chymase to calculate 50% inhibitory concentration (IC50: nM). The test was conducted several times. Chymase was prepared for each test in the manner described above. The compounds examined were compounds prepared in the above-described examples. […] 50% Inhibitory concentration (IC50: nM) of each compound toward rat chymase, dog […] human […] Substrate: Succinyl leucyl leucyl valyl tyrosyl methylcoumarylamide (for rat […] angiotensin I (for human and dog chymase)

Another assay concerns other human proteases. Nature of the assay: Inhibitory activity on other human proteases (summary). It is filed as biochemical. As to the method:
(E) Measurement of inhibitory activity on proteases other than chymase
The inhibitory activity of the present compounds on human elastase, human cathepsin G, human urokinase, human thrombin, human plasmin, and human factor Xa was determined using their corresponding synthetic substrates in the same manner as for chymase. All the above proteases were those commercially available from Boehringer Mannheim or purified by a combination of known methods. The synthetic substrates were those produced by Peptide Renkyusho. The synthetic substrates for the respective proteases are as follows.
The test was conducted several times. Chymase was prepared for each test in the manner described above. The compounds examined were compounds prepared in the above-described examples.

On to `CN1CCN(C(=O)CCCC(=O)C(=O)C(Cc2cccc(F)c2)NC(=O)Cn2c(-c3ccccc3)ncc(N)c2=O)CC1` (stereo not drawn) [Compound 69], for which the IC50 on rat chymase amounted to 54 nM; in the assay with guinea pig eosinophils it was 2.5 µM.
`Nc1cnc(-c2ccccc2)n(CC(=O)NC(Cc2ccccc2)C(=O)C(=O)CCCN2CCOCC2)c1=O` (stereo not drawn) [Compound 71, 2-(5-Amino-6-oxo-2-phenyl-1,6-dihydropyrimidine-1-yl)-N-{2,3-dioxo-6-(4-morpholine-4-yl)-1-phenylmethyl}hexylacetamide]: the IC50 with rat mast cells is 13 µM; with guinea pig eosinophils it was 2.6 µM.
For `O=C(Cn1c(-c2ccccc2)ncc(NC(=O)OCc2ccncc2)c1=O)NC(Cc1ccccc1)C(=O)C(=O)CCCOc1ccccn1` (stereo not drawn) [Compound 78, 2-{6-oxo-2-phenyl-5-(4-pyridylmethyloxycarbonylamino)-1,6-dihydropyrimidine-1-yl}-N-{2,3-dioxo-1-phenylmethyl-6-(2-pyridyloxy)}hexylacetamide], the IC50 at rat chymase turned out to be 42 nM; at dog chymase, 0.32 nM; at human chymase (substrate angiotensin I, pH 8.0, 37° C., 60 min, read-out: Human Chymase (IC50: nM), 50% inhibitory concentration) it was 1.6 nM. The “inhibitory activity on human chymase, in words” value at human chymase is “strong inhibitory activity on human chymase”. Also, the “inhibitory activity on other human proteases, in words” value in the assay with other human proteases is given as “no inhibitory activity on other human proteases”.
